Data published in the NIST ThermoML archive (doi:10.1016/j.jct.2018.08.013).
Where “and” joins values, the source holds several entries; their conditions need not be identical. Equal values may be shown once. Numbers after ± are expanded uncertainties.

Test: specific heat capacity at constant pressure; xn = mol fraction of the nth substance listed
Details: 100 kPa, Crystal of intercomponent compound 1, x2 = 0.486

[Te] [tellurium] + [Ga]
Details | specific heat capacity
241.59 K, relaxation calorimetry | 244.22 ± 10 J/K/kg
241.78 K, relaxation calorimetry | 242.8 ± 9.9 J/K/kg
241.86 K, relaxation calorimetry | 243.61 ± 9.9 J/K/kg
241.89 K, relaxation calorimetry | 243.51 ± 9.9 J/K/kg
245.93 K, relaxation calorimetry | 243.46 ± 9.9 J/K/kg
245.97 K, relaxation calorimetry | 243.31 ± 9.9 J/K/kg
246.62 K, relaxation calorimetry | 244.93 ± 9.9 J/K/kg
246.79 K, relaxation calorimetry | 243.87 ± 9.9 J/K/kg
248.47 K, relaxation calorimetry | 241.79 ± 9.8 J/K/kg
248.52 K, relaxation calorimetry | 242.09 ± 9.8 J/K/kg
248.53 K, relaxation calorimetry | 241.99 ± 9.8 J/K/kg
249.9 K, relaxation calorimetry | 242.85 ± 9.9 J/K/kg
249.93 K, relaxation calorimetry | 242.9 ± 9.9 J/K/kg
251.64 K, relaxation calorimetry | 245.64 ± 10 J/K/kg
251.81 K, relaxation calorimetry | 244.63 ± 9.9 J/K/kg
253.96 K, relaxation calorimetry | 242.96 ± 9.9 J/K/kg
254 K, relaxation calorimetry | 243.06 ± 9.9 J/K/kg
256.38 K, relaxation calorimetry | 242.14 ± 9.8 J/K/kg
256.44 K, relaxation calorimetry | 242.35 ± 9.8 J/K/kg and 242.65 ± 9.8 J/K/kg
256.66 K, relaxation calorimetry | 246.25 ± 10 J/K/kg
256.83 K, relaxation calorimetry | 245.08 ± 10 J/K/kg
258.12 K, relaxation calorimetry | 244.12 ± 9.9 J/K/kg
258.16 K, relaxation calorimetry | 244.02 ± 9.9 J/K/kg
260.51 K, Extra sensitive DSC | 245.54 ± 9.5 J/K/kg
261.66 K, relaxation calorimetry | 248.07 ± 10 J/K/kg
261.82 K, relaxation calorimetry | 246.86 ± 10 J/K/kg
262.18 K, relaxation calorimetry | 245.13 ± 10 J/K/kg
262.22 K, relaxation calorimetry | 244.93 ± 10 J/K/kg
263.12 K, Extra sensitive DSC | 246.4 ± 9.5 J/K/kg
264.28 K, relaxation calorimetry | 243.97 ± 9.9 J/K/kg
264.35 K, relaxation calorimetry | 244.43 ± 9.9 J/K/kg and 244.17 ± 9.9 J/K/kg
265.73 K, Extra sensitive DSC | 246.3 ± 9.5 J/K/kg
266.13 K, relaxation calorimetry | 246.15 ± 10 J/K/kg
266.19 K, relaxation calorimetry | 245.59 ± 10 J/K/kg
266.68 K, relaxation calorimetry | 246.55 ± 10 J/K/kg
266.71 K, relaxation calorimetry | 246.55 ± 10 J/K/kg
266.72 K, relaxation calorimetry | 246.4 ± 10 J/K/kg
268.33 K, Extra sensitive DSC | 246.81 ± 9.6 J/K/kg
270.07 K, Extra sensitive DSC | 246.96 ± 9.6 J/K/kg
270.3 K, relaxation calorimetry | 248.78 ± 10 J/K/kg
270.35 K, relaxation calorimetry | 247.67 ± 10 J/K/kg
270.64 K, relaxation calorimetry | 247.06 ± 10 J/K/kg
270.65 K, relaxation calorimetry | 246.66 ± 10 J/K/kg
271.54 K, relaxation calorimetry | 248.83 ± 10 J/K/kg
271.73 K, relaxation calorimetry | 246.76 ± 10 J/K/kg
271.83 K, relaxation calorimetry | 246.35 ± 10 J/K/kg
272.68 K, Extra sensitive DSC | 247.06 ± 9.6 J/K/kg
272.79 K, relaxation calorimetry | 247.62 ± 10 J/K/kg
272.8 K, relaxation calorimetry | 247.31 ± 10 J/K/kg
273.54 K, relaxation calorimetry | 249.19 ± 10 J/K/kg
273.74 K, relaxation calorimetry | 246.71 ± 10 J/K/kg
273.84 K, relaxation calorimetry | 246.55 ± 10 J/K/kg
275.28 K, Extra sensitive DSC | 247.26 ± 9.6 J/K/kg
275.55 K, relaxation calorimetry | 249.14 ± 10 J/K/kg
275.75 K, relaxation calorimetry | 246.76 ± 10 J/K/kg
275.85 K, relaxation calorimetry | 246.5 ± 10 J/K/kg
277.54 K, relaxation calorimetry | 249.29 ± 10 J/K/kg
277.75 K, relaxation calorimetry | 246.76 ± 10 J/K/kg
277.85 K, relaxation calorimetry | 246.55 ± 10 J/K/kg
277.88 K, Extra sensitive DSC | 247.72 ± 9.6 J/K/kg
279.54 K, relaxation calorimetry | 249.09 ± 10 J/K/kg
279.76 K, relaxation calorimetry | 246.5 ± 10 J/K/kg
279.87 K, relaxation calorimetry | 246.45 ± 10 J/K/kg
280.49 K, Extra sensitive DSC | 247.87 ± 9.6 J/K/kg
281.52 K, relaxation calorimetry | 249.09 ± 10 J/K/kg
281.76 K, relaxation calorimetry | 246.25 ± 10 J/K/kg
281.87 K, relaxation calorimetry | 246.1 ± 10 J/K/kg
283.09 K, Extra sensitive DSC | 248.33 ± 9.6 J/K/kg
283.53 K, relaxation calorimetry | 248.99 ± 10 J/K/kg
283.78 K, relaxation calorimetry | 246.15 ± 10 J/K/kg
283.87 K, relaxation calorimetry | 246.66 ± 10 J/K/kg
285.53 K, relaxation calorimetry | 249.44 ± 10 J/K/kg
285.7 K, Extra sensitive DSC | 248.58 ± 9.6 J/K/kg
285.78 K, relaxation calorimetry | 246.4 ± 10 J/K/kg
285.88 K, relaxation calorimetry | 246.6 ± 10 J/K/kg
287.54 K, relaxation calorimetry | 249.54 ± 10 J/K/kg
287.78 K, relaxation calorimetry | 246.35 ± 10 J/K/kg
287.89 K, relaxation calorimetry | 246.66 ± 10 J/K/kg
288.3 K, Extra sensitive DSC | 248.89 ± 9.6 J/K/kg
289.53 K, relaxation calorimetry | 249.65 ± 10 J/K/kg
289.79 K, relaxation calorimetry | 246.55 ± 10 J/K/kg
289.89 K, relaxation calorimetry | 246.86 ± 10 J/K/kg
290.04 K, Extra sensitive DSC | 248.94 ± 9.6 J/K/kg
291.53 K, relaxation calorimetry | 250.41 ± 10 J/K/kg
291.8 K, relaxation calorimetry | 247.16 ± 10 J/K/kg
291.9 K, relaxation calorimetry | 247.52 ± 10 J/K/kg
292.64 K, Extra sensitive DSC | 249.09 ± 9.6 J/K/kg
293.52 K, relaxation calorimetry | 251.32 ± 10 J/K/kg
293.81 K, relaxation calorimetry | 248.68 ± 10 J/K/kg
293.9 K, relaxation calorimetry | 248.89 ± 10 J/K/kg
295.25 K, Extra sensitive DSC | 249.29 ± 9.7 J/K/kg
295.51 K, relaxation calorimetry | 251.37 ± 10 J/K/kg
295.84 K, relaxation calorimetry | 249.34 ± 10 J/K/kg
295.91 K, relaxation calorimetry | 249.34 ± 10 J/K/kg
297.52 K, relaxation calorimetry | 250.81 ± 10 J/K/kg
297.83 K, relaxation calorimetry | 250.71 ± 10 J/K/kg
297.85 K, Extra sensitive DSC | 249.75 ± 9.7 J/K/kg
297.93 K, relaxation calorimetry | 248.68 ± 10 J/K/kg
299.53 K, relaxation calorimetry | 250.25 ± 10 J/K/kg
299.85 K, relaxation calorimetry | 250.15 ± 10 J/K/kg
299.94 K, relaxation calorimetry | 248.63 ± 10 J/K/kg
300.45 K, Extra sensitive DSC | 249.9 ± 9.7 J/K/kg
301.54 K, relaxation calorimetry | 251.06 ± 10 J/K/kg
301.87 K, relaxation calorimetry | 250.86 ± 10 J/K/kg
301.95 K, relaxation calorimetry | 249.39 ± 10 J/K/kg
303.06 K, Extra sensitive DSC | 250.51 ± 9.7 J/K/kg
303.81 K, relaxation calorimetry | 250.56 ± 10 J/K/kg
303.84 K, relaxation calorimetry | 252.33 ± 10 J/K/kg
303.87 K, relaxation calorimetry | 250.51 ± 10 J/K/kg
305.66 K, Extra sensitive DSC | 250.76 ± 9.7 J/K/kg
307.4 K, Extra sensitive DSC | 250.81 ± 9.7 J/K/kg
310 K, Extra sensitive DSC | 251.22 ± 9.7 J/K/kg
312.6 K, Extra sensitive DSC | 251.42 ± 9.7 J/K/kg
315.21 K, Extra sensitive DSC | 251.88 ± 9.7 J/K/kg
317.81 K, Extra sensitive DSC | 251.93 ± 9.8 J/K/kg
320.41 K, Extra sensitive DSC | 252.23 ± 9.8 J/K/kg
323.02 K, Extra sensitive DSC | 252.48 ± 9.8 J/K/kg
325.62 K, Extra sensitive DSC | 252.53 ± 9.8 J/K/kg
327.36 K, Extra sensitive DSC | 252.74 ± 9.8 J/K/kg
329.96 K, Extra sensitive DSC | 253.04 ± 9.8 J/K/kg
332.56 K, Extra sensitive DSC | 253.19 ± 9.8 J/K/kg
335.17 K, Extra sensitive DSC | 253.5 ± 9.8 J/K/kg
337.77 K, Extra sensitive DSC | 253.7 ± 9.8 J/K/kg
340.38 K, Extra sensitive DSC | 254 ± 9.8 J/K/kg
342.98 K, Extra sensitive DSC | 254.41 ± 9.8 J/K/kg
345.58 K, Extra sensitive DSC | 254.41 ± 9.8 J/K/kg
348.19 K, Extra sensitive DSC | 254.76 ± 9.9 J/K/kg
349.92 K, Extra sensitive DSC | 254.76 ± 9.9 J/K/kg
352.53 K, Extra sensitive DSC | 254.66 ± 9.9 J/K/kg
355.13 K, Extra sensitive DSC | 255.32 ± 9.9 J/K/kg
356.87 K, Extra sensitive DSC | 255.07 ± 9.9 J/K/kg
358.6 K, Extra sensitive DSC | 254.97 ± 9.9 J/K/kg
